Here are results for six compounds from US11667664B2, “Cyclic dinucleotides for cytokine induction” (KAYLA THERAPEUTICS, priority 2014, dated 2023).

Data set [1] has as its system whole blood from healthy human donors. The data set is described as follows: Cytokine induction in vitro in whole blood from healthy human donors (Example 2.5). The settings on record: blood diluted 1:1 in RPMI, 18 to 20 hours, averages for all 20 donors, FIG. 9; for Type I IFN induction in human whole blood (active concentration): HEK-Blue™ IFN-α/β-KO-STING reporter; for IL-1 induction in human whole blood (active concentration): HEK-Blue™ IL-1R reporter; for TNF-α induction in human whole blood (active concentration): HEK-Blue™ TNF-α reporter. The class given is cell-based. An excerpt:
HEK-Blue™ cell lines: The following three cell lines also were used for biological evaluation of the CDNs. • 1. HEK-Blue™ IFN-α/β-KO-STING: These cells are derived from HEK-Blue™ IFN-α/β cells (InvivoGen catalog code: hkb-ifnab), in which the STING gene has been inactivated. HEK-Blue™ IFN-α/β cells enable detection of bioactive human type I IFNs through monitoring of activation of the ISGF3 pathway. These cells were generated by stable transfection of HEK293 cells with the human STAT2 and IRF9 genes to obtain a fully active type I IFN signaling pathway. The other genes of the pathway (IFNAR1, IFNAR2, JAK1, TyK2 and STAT1) are naturally expressed in sufficient amounts. The cells were further transfected with a SEAP reporter gene under control of an IFN-α/β-inducible ISG54 promoter. Stimulation of HEK-Blue™ IFN-α/β cells with human IFN-α or IFN-β activates the JAK/STAT/ISGF3 pathway and subsequently induces production of SEAP. Production of Type I interferons in these cells is measured using QUANTI-Blue™. • 2. HEK-Blue™ IL-1R (InvivoGen catalog code: hkb-illr): HEK-Blue™ IL-1R cells were designed to detect bioactive human and murine IL-1β through monitoring of activation of the NF-κB and AP-1 pathways. Additionally, these cells detect bioactive IL-1β from cynomolgus monkeys, dogs and rats. In fact, HEK-Blue™ IL-1R cells can detect IL-la and IL-1(3, as these cytokines bind to the same receptor, IL-1R. These cells derive from HEK-Blue™ IL-1β cells (InvivoGen catalog code: hkb-illb), in which the TNF-α response is blocked. Therefore, HEK-Blue™ IL-1R cells respond specifically to IL-1. These cells endogenously express the human IL-1 receptor and were stably transfected with the murine IL-1 receptor, rendering them very sensitive to both human and murine IL-1(3. HEK-Blue™ IL-1R cells express a SEAP reporter gene under control of an IFN-(3 minimal promoter fused to five NF-κB and five AP-1 binding sites. Binding of IL-1β to IL-1R on the surface of HEK-Blue™ IL-1R cells triggers a signaling cascade that leads to the activation of NF-κB and subsequent production of SEAP. Production of IL-1β in these cells is measured using QUANTI-Blue™. • 3. HEK-Blue™ TNF-II-[…](InvivoGen catalog code: hkb-tnfdmyd): HEK-Blue™ TNF-α cells enable detection of bioactive human and murine TNF-α through monitoring of activation of the NF-κB pathway. These cells were generated by stable transfection of HEK293 cells with a SEAP reporter gene under control of an IFN-(3 minimal promoter fused to five NF-κB and five AP-1 binding sites. They were further rendered unresponsive to IL-1β by knocking out the MyD88 gene. Stimulation of HEK-Blue™ TNF-α cells with TNF-α triggers activation of the NF-κB-inducible promoter and production of SEAP. Production of TNF-α in these cells is measured using QUANTI-Blue™. Quantification of IL-6 in Experiments
Acquisition and Handling of Human Blood Samples
Twenty human blood samples were acquired from heathy donors at the San Diego Blood Bank (3636 Gateway Center Ave, Suite 100; San Diego, Calif. 92102; USA; www.sandiegobloodbank.org). Briefly, the samples were collected by venipuncture into sodium heparin (green-cap) tubes at the time of donation, and then stored at 4° C. until pick-up. The tubes were picked up on the day of collection, stored on ice during transport, and subsequently tested with the CDNs on the same day.
Each blood sample was diluted (1:1) in RPMI medium and aliquoted into 96-well plates (180-[…]L wells) containing each CDN at six different concentrations (30 µg/mL, 10 µg/mL, 3 µg/mL, 1 µg/mL, 0.3 µg/mL and 0.1 µg/mL). The plates were incubated at 37° C. in a CO2 incubator for 18 to 20 hours. The next day the supernatants were collected, transferred into the corresponding wells of round-bottom 96-well plates, and stored at −80° C. […]

Another data set addresses T1, nuclease P1 (NP1) (Penicillium citrinum, UniProt P24289).
T1 sequence (P24289 1-270): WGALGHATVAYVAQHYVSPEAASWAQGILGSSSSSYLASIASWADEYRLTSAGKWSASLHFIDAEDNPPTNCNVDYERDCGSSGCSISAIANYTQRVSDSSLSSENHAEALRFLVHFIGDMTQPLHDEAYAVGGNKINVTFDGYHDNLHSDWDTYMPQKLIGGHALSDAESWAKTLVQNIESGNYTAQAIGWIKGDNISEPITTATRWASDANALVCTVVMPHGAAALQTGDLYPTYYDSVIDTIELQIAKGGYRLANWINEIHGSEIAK
The data set is described as follows: Resistance to enzymatic cleavage by NP1, monitored by UHPLC-MS (Example 2.6). The note with it: 7 μg CDN; 2.5 mU NP1 in 30 mM acetate buffer with 2 mM ZnCl2, pH 5.3; 37° C.; 0 to 120 hours; FIGS. 10B, 10D. How it is done: (§1) • Enzymes used: snake-venom phosphodiesterase (SVPD) and nuclease P1 (NP1) • Subject CDNs tested: CL603, CL632, CL614 and CL656 • Reference (non-fluorinated) CDNs tested: c-GAMP and c-AIMP • Property evaluated: resistance to enzymatic cleavage
(§2) We incubated each CDN with either of two enzymes known to cleave nucleic acids and CDNs, and then looked for signs of degradation by UHPLC over time, by measuring the decrease in the area of the peak corresponding to the CDN (identified according to MS). Specifically, we assessed the resistance of the CDNs to snake-venom phosphodiesterase (SVPD) and nuclease P1 (NP1), both of which can degrade CDNs by cleaving the phosphodiester nucleotide linkages. The experiment was performed as follows:
(§3) Each CDN (7 […]g) was separately incubated with a solution (21 µL) of either enzyme (either 160 µg SVPD in PBS buffer containing 0.6 mM MgCl2; or 2.5 mU NP1 in 30 mM acetate buffer containing 2 mM ZnCl2 [pH 5.3]), or with water (as control) in a water bath at 37° C. Aliquots of the reaction mixture were collected at various time points from 0 to 120 hours, heated at 100° C. for 2 min, and then frozen at […] Finally, 10 µL of each aliquot was injected directly into the HPLC (Agilent 1290 Infinity UHPLC equipped with a UV-detector; column: Waters Acquity UPLC CSH C18 1.7 µm [2.1 mm×50 mm; flow rate: 0.3 mL/min]; detection at 254 nm; autosampler temperature: 25° C.) for analysis. The following gradient was used: 100% A (10 mM aq. ammonium formate) for 1 minute; then 100% A to 100% B (acetonitrile) over 5 minutes.
(§4) The percentage of absorbance of CDNs at each time point was calculated by dividing the peak area corresponding to the parent CDN, by the sum of all the peak areas in the chromatogram, and then multiplying by 100.

For data set [2], the system named is snake-venom phosphodiesterase (SVPD). The data set is described as follows: Resistance to enzymatic cleavage by SVPD, monitored by UHPLC-MS (Example 2.6). The settings on record: 37° C., FIGS. 10A, 10C; for Resistance to enzymatic degradation by SVPD, compared with corresponding non-fluorinated ribo-CDN analog: 7 μg CDN, 160 μg SVPD in PBS with 0.6 mM MgCl2, 0 to 120 hours; for Resistance to SVPD, compared with corresponding analog containing two phosphodiester linkages: phosphorothioate vs phosphodiester fluorinated deoxyribo-CDNs. How it is done: as §1, §2, §3, §4

The conditions of data set [3]: literature example (Li, 2014); cited from earlier work.
The next data set relates to mice. The data set is described as follows: Cytokine induction in CDN-treated mice (Example 2.3). The settings on record: Swiss mice; 10 mg/kg i.v.; 4 h post-injection; RAW ISG54 reporter cells; FIG. 6. The class given is in vivo, mouse. From the text: Interleukin-6 was quantified using an enzyme-linked immunoassay (ELISA) according to the manufacturer's instructions (R&D Systems).
• Species evaluated: mouse • Cyclic dinucleotides tested: CL604, CL606, CL609, CL611 and CL614 • Reference compound: c-AIMP and saline • Cytokines evaluated: IFN-α/β (using RAW ISG54 reporter cells) and IL-6 (by ELISA).
Twenty-one mice (Swiss; female; mean age: 8 weeks) were divided into seven groups of three: one group served as control (saline) and the other six groups were each treated with a cyclic dinucleotide (either c-AIMP, CL604, CL606, CL609, CL611 or CL614). On Day −7, blood samples for basal cytokine levels were collected from all mice and stored at −20° C. until analysis. On Day 1, the mice were treated with either 200 μL of physiologic serum (containing 0.9% NaCl) or 200 μL of a solution of a cyclic dinucleotide (dose: 10 mg/kg) in physiologic serum (containing 0.9% NaCl), by intravenous (i.v.) injection. Blood samples were collected from the mice at 4 h post-injection, and then stored at −20° C. until analysis. Cytokine induction was measured in the sera from the blood samples.

`Nc1ncnc2c1ncn2C1OC2COP(=O)(O)O[C@@H]3C(COP(=O)(O)O[C@H]2[C@H]1F)OC(n1cnc2c(=O)[nH]cnc21)[C@@H]3F` (some centres unmarked) [CL614]: in data set [1], the “Type I IFN induction in human whole blood (active concentration)” value (“Type I IFN induction” for short) is reported as “more active than is its corresponding non-fluorinated analog”, the “IL-1 induction in human whole blood (active concentration)” value (“IL-1 induction in human whole blood” for short) is recorded as “more active than is its corresponding non-fluorinated analog” and the “TNF-α induction in human whole blood (active concentration)” value (from here on “TNF-α induction in human whole blood”) is listed as “more active than is its corresponding non-fluorinated analog”. Further, at nuclease P1 (NP1), the “Resistance to enzymatic degradation by NP1, compared with corresponding non-fluorinated ribo-CDN analog” value is “more resistant to enzymatic degradation”. Besides, the “Resistance to enzymatic degradation by SVPD, compared with corresponding non-fluorinated ribo-CDN analog” value in data set [2] is listed as “more resistant to enzymatic degradation”.

As to `Nc1ncnc2c1ncn2C1OC2COP(=O)(S)O[C@@H]3C(COP(=O)(S)O[C@H]2[C@H]1F)OC(n1cnc2c(=O)[nH]cnc21)[C@@H]3F` (mixture of isomers) [CL656], in data set [1], the “Type I IFN induction” value is listed as “more active than is its corresponding non-fluorinated analog”, the “IL-1 induction in human whole blood” value is reported as “more active than is its corresponding non-fluorinated analog” and the “TNF-α induction in human whole blood” value is “more active than is its corresponding non-fluorinated analog”. Also, in data set [2], the “Resistance to enzymatic degradation by SVPD, compared with corresponding non-fluorinated ribo-CDN analog” value is “more resistant to enzymatic degradation” and the “Resistance to SVPD, compared with corresponding analog containing two phosphodiester linkages” value is “more resistant to SVPD”.

As for `Nc1nc2c(ncn2C2OC3COP(=O)(S)O[C@@H]4C(COP(=O)(S)O[C@H]3[C@H]2F)OC(n2cnc3c(N)ncnc32)[C@@H]4F)c(=O)[nH]1` (some centres unmarked) [CL632], the “Resistance to enzymatic degradation by NP1, compared with corresponding non-fluorinated ribo-CDN analog” value at nuclease P1 (NP1) is “more resistant to enzymatic degradation”. In data set [2], the “Resistance to enzymatic degradation by SVPD, compared with corresponding non-fluorinated ribo-CDN analog” value was “more resistant to enzymatic degradation” and the “Resistance to SVPD, compared with corresponding analog containing two phosphodiester linkages” value is “more resistant to SVPD”.

For the compound `Nc1nc2c(ncn2[C@@H]2O[C@@H]3COP(O)(=S)O[C@H]4[C@@H](O)[C@H](n5cnc6c(N)ncnc65)O[C@@H]4COP(=O)(S)O[C@@H]2[C@@H]3O)c(=O)[nH]1` (stereo partly drawn) [(2′,3′) c-GAMP(S)], in data set [3], the “Resistance to enzymatic hydrolysis compared with phosphodiester analog” value is “more resistant to enzymatic hydrolysis”.

In the case of `Nc1ncnc2c1ncn2C1OC2COP(=O)(O)O[C@H]3C(n4cnc5c(=O)[nH]cnc54)OC(COP(=O)(O)O[C@@H]1[C@@H]2O)[C@H]3O` (some centres unmarked) [CL611], the “Type I interferon (IFN-α/β) induction in sera from mice” value in the data set with mice is on record as “except CL611 strongly induced Type I interferons”.

As to `Nc1nc2c(ncn2C2OC3COP(=O)(O)O[C@@H]4C(COP(=O)(O)O[C@H]3[C@H]2F)OC(n2cnc3c(N)ncnc32)[C@@H]4F)c(=O)[nH]1` (some centres unmarked) [CL603], in data set [1], the “Type I IFN induction” value was “more active than is its corresponding non-fluorinated analog”, the “IL-1 induction in human whole blood” value is listed as “more active than is its corresponding non-fluorinated analog” and the “TNF-α induction in human whole blood” value is recorded as “more active than is its corresponding non-fluorinated analog”. At nuclease P1 (NP1), the “Resistance to enzymatic degradation by NP1, compared with corresponding non-fluorinated ribo-CDN analog” value was “more resistant to enzymatic degradation”. The “Resistance to enzymatic degradation by SVPD, compared with corresponding non-fluorinated ribo-CDN analog” value in data set [2] is reported as “more resistant to enzymatic degradation”.
